In patent US8609835B2, “Polysaccharide composition and methods of isolation of the emulsion stabilizing cationic polyelectrolytic polysaccharide” (Trustees Of Tufts College, priority 2008, dated 2013):

Test: Aqueous solubility (statements)

Acinetobacter polyelectrolyte exopolysaccharide [APE]
solubility in aqueous solutions versus pH: soluble throughout the pH range
